{
  "source": "patent US9161900B2",
  "about": "“Cosmetic composition for inhibiting hair loss and enhanced hair growth” (AMOREPACIFIC CORPORATION, priority 2011, dated 2015)",
  "system": "LNCaP cells having the androgen receptor",
  "experiment": "Androgen receptor inhibition assay (LNCaP cell viability, WST-1)",
  "conditions": "Homo sapiens, 48 h, read-out: Cell viability (%)",
  "description": "The human prostate cancer cell line LNCaP cells were acquired from the American Type Culture Collection (Manassas, Va., USA) and cultured for 24 hours in RPMI 1640 medium containing 10% fetal bovine serum (FBS) and 2 mM 1-glutamine in an incubator maintained at 5% CO2 and 37° C.\nCell viability of the cultured cells was measured using the WST-1 reagent.",
  "data": [
    {"smiles": "C[C@]12CCC(=O)C[C@@H]1CC[C@@H]1[C@@H]2CC[C@]2(C)[C@@H](O)CC[C@@H]12", "note": "[DHT, dihydrotestosterone]", "values": [
      {"measurement": "viability at 0.001 µM", "result": 119, "unit": "%"}
    ]}
  ]
}
